Experimental data taken from patent publication EP0091208A1, “Method for combating insect pests, and novel cyclopropane carboxylates useful as active ingredients therein” (IMPERIAL CHEMICAL INDUSTRIES PLC, priority 1982, dated 1983).
Values after ≈ are worked out from the molar mass of the structure shown.

How the values were obtained:
[1] = Fish toxicity, young carp; conditions: in vivo
From the text: (§1) This Example illustrates the improved safety to fish of the compounds for use in the method of the invention compared with known compounds of similar chemical type. Table III sets out the LC50 values for young trout and carp in parts per million for the compounds for use in the method of this invention and parts per billion for the known (reference) compounds.

[2] = Fish toxicity, young trout; conditions: in vivo
From the text: as §1

Aphis fabae (aphids) = assay: Insecticidal mortality test, contact, aphids; assay type: in vivo; conditions: French beans, 2 days
Description: (§2) The activity of the compound was determined using a variety of insect pests. The compound was used in the form of liquid preparations containing 100, 50, 25, 10 or […] p.p.m. by weight of the compound. The preparations were made by dissolving the compound in a mixture of solvents consisting of 4 parts by volume of acetone and 1 part by volume of diacetone alcohol. The solutions were then diluted with water containing 0.01% by weight of a wetting agent sold under the trade name "LISSAPOL" NX until the liquid preparations contained the required concentration of the compound. "Lissapol" is a Trade Mark.
(§3) The test procedure adopted with regard to each pest was basically the same and comprised supporting a number of the pests on a medium which was usually a host plant or a foodstuff on which the pests feed, and treating either or both the pests and the medium with the preparations. The mortality of the pests was then assessed at periods usually varying from one to three days after the treatment.
(§4) The results of the tests are given in Table IIB for each of the products A to H at the rate in parts per million given in the second column as a grading of mortality on a scale of 0-9 wherein
(§5) In Table IIB the pest organism used is designated by a letter code and the pest species, the support medium or food, and the type and duration of test is given in Table IIA.

[3] = test system: Diabrotica balteata (rootworm - larvae); assay: Insecticidal mortality test, contact, rootworm; assay type: in vivo; conditions: filter paper, 3 days
Description: as §2, §3, §4, §5

[4] = test system: Plutella xylostella (diamond back moth - larvae); assay: Insecticidal mortality test, residual, diamond back moth; assay type: in vivo; conditions: cabbage leaves, 3 days
Description: as §2, §3, §4, §5

[5] = test system: Spodoptera littoralis (cotton leaf worm - larvae); assay: Insecticidal mortality test, contact/residual, cotton leaf worm; assay type: in vivo; conditions: cabbage leaves, 3 days
Description: as §2, §3, §4, §5

[6] = test system: Musca domestica (houseflies - adults); assay: Insecticidal mortality test, contact, houseflies; assay type: in vivo; conditions: cotton wool/milk, sugar, 1 day
Description: as §2, §3, §4, §5

Row | SMILES | grading of mortality AF (Aphis fabae (aphids); rate 100 ppm) | grading of mortality DB ([3]; rate 100 ppm) | grading of mortality PX ([4]; rate 100 ppm) | grading of mortality SL ([5]; rate 100 ppm) | grading of mortality MD ([6]; rate 100 ppm) | LC50 ([2]; compounds of the invention) | grading of mortality AF (Aphis fabae (aphids); rate 10 ppm) | grading of mortality DB ([3]; rate 10 ppm) | grading of mortality PX ([4]; rate 10 ppm) | grading of mortality SL ([5]; rate 10 ppm) | grading of mortality MD ([6]; rate 10 ppm) | also measured
1 | CC1(C)C(/C=C(\Cl)C(F)(F)F)C1C(=O)OC(C#N)c1cccc(Oc2ccccc2)c1 (racemic) [Cyhalothrin, (±)-α-cyano-3-phenoxybenzyl (±)-cis-3-(Z-2-chloro-3,3,3-trifluoroprop-1-en-1-yl)-2,2-dimethylcyclopropane carboxylate, reference compound] |  |  |  |  |  |  |  |  |  |  |  | LC50 ([1]; known (reference) compounds): 0.00134 µg/mL (≈ 0.00298 µM); LC50 ([2]; known (reference) compounds): 0.00073 µg/mL (≈ 0.00162 µM)
2 | CC1(C)[C@H](C(=O)OC(C#N)c2cccc(Oc3ccc(Cl)cc3)c2)[C@@H]1/C=C(\Cl)C(F)(F)F (stereo partly drawn) [Compound 1, (+)-χ-cyano-3-(4-chlorophenoxy)benzyl (+)-cis-3-(Z-2-chloro-3,3,3-trifluoroprop-l-en-l-yl)-2,2-dimethylcyclopropane carboxylate] | 9 (90 to 100%) | 9 (90 to 100%) | 9 (90 to 100%) | 9 (90 to 100%) | 9 (90 to 100%) | 20 µg/mL (≈ 41.3 µM) |  |  |  |  |  | grading of mortality AF (Aphis fabae (aphids); rate 12 ppm): 9 (90 to 100%); grading of mortality AF (Aphis fabae (aphids); rate 25 ppm): 9 (90 to 100%); grading of mortality AF (Aphis fabae (aphids); rate 50 ppm): 9 (90 to 100%); grading of mortality DB ([3]; rate 12 ppm): 0 (less than 10% mortality); grading of mortality DB ([3]; rate 25 ppm): 0 (less than 10% mortality); grading of mortality DB ([3]; rate 50 ppm): 9 (90 to 100%); grading of mortality PX ([4]; rate 12 ppm): 2 (20 to 29%); grading of mortality PX ([4]; rate 25 ppm): 7 (70 to 79%); grading of mortality PX ([4]; rate 50 ppm): 9 (90 to 100%); grading of mortality SL ([5]; rate 12 ppm): 0 (less than 10% mortality); grading of mortality SL ([5]; rate 25 ppm): 0 (less than 10% mortality); grading of mortality SL ([5]; rate 50 ppm): 9 (90 to 100%); grading of mortality MD ([6]; rate 12 ppm): 9 (90 to 100%); grading of mortality MD ([6]; rate 25 ppm): 9 (90 to 100%); grading of mortality MD ([6]; rate 50 ppm): 9 (90 to 100%)
3 | CC1(C)[C@H](/C=C(\Cl)C(F)(F)F)[C@@H]1C(=O)OC(C#N)c1cccc(Oc2ccc(Br)cc2)c1 (mixture of isomers) [Compound 6, (+)-α-cyano-3-(4-bromophenoxy)benzyl (+)-cis-3-(Z-2-chloro-3,3,3-trifluoroprop-1-en-1-yl)-2,2-dimethylcyclopropane carboxylate] | 9 (90 to 100%) | 5 (50 to 59%) | 7 (70 to 79%) | 9 (90 to 100%) | 9 (90 to 100%) |  | 9 (90 to 100%) | 3 (30 to 39%) | 6 (60 to 69%) | 9 (90 to 100%) | 6 (60 to 69%) | LC50 ([1]; compounds of the invention): 10 µg/mL (≈ 18.9 µM)
4 | CC1(C)[C@H](/C=C(\Cl)C(F)(F)F)[C@@H]1C(=O)OC(C#N)c1cccc(Oc2ccc(F)cc2)c1 (mixture of isomers) [Compound 7, (+)-α-cyano-3-(4-fluorophenoxy)benzyl (+)-cis-3-(Z-2-chloro-3,3,3-trifluoroprop-1-en-1-yl)-2,2-dimethylcyclopropane carboxylate] | 9 (90 to 100%) | 9 (90 to 100%) | 9 (90 to 100%) | 9 (90 to 100%) | 0 (less than 10% mortality) | 1 µg/mL (≈ 2.14 µM) | 9 (90 to 100%) | 5 (50 to 59%) | 9 (90 to 100%) | 9 (90 to 100%) | 0 (less than 10% mortality) | 
5 | CC1(C)[C@H](/C=C(\Cl)C(F)(F)F)[C@H]1C(=O)OC(C#N)c1cccc(Oc2ccc(Cl)cc2)c1 (stereo partly drawn) [Compound 8, (+)-α-cyano-3-(4-chlorophenoxy)benzyl (+)-trans-3-(Z-2-chloro-3,3,3-trifluoroprop-l-en-yl)-2,2-dimethylcyclopropane carboxylate] | 9 (90 to 100%) | 5 (50 to 59%) | 9 (90 to 100%) | 9 (90 to 100%) | 9 (90 to 100%) |  | 9 (90 to 100%) | 0 (less than 10% mortality) | 8 (80 to 89%) | 9 (90 to 100%) | 9 (90 to 100%) | 
6 | CC1(C)C(C=C(Cl)Cl)C1C(=O)OC(C#N)c1cccc(Oc2ccccc2)c1 (racemic) [Cypermethrin, (±)-α-cyano-3-phenoxybenzyl (±)-cis/trans-3-(2,2-dichlorovinyl)-2,2-dimethylcyclopropane carboxylate, reference compound] |  |  |  |  |  |  |  |  |  |  |  | LC50 ([2]; known (reference) compounds): ~0.002 µg/mL (≈ 0.0048 µM)
7 | CC1(C)[C@H](C(=O)OCc2cccc(Oc3ccc(Cl)cc3)c2)[C@@H]1/C=C(\Cl)C(F)(F)F (racemic) [Compound 5, (+)-3-(4-chlorophenoxy)benzyl (+)-cis-3-(Z-2-chloro-3,3,3-trifluoroprop-l-en-yl)-2,2-dimethylcyclopropane carboxylate] | 9 (90 to 100%) | 5 (50 to 59%) | 9 (90 to 100%) | 9 (90 to 100%) | 9 (90 to 100%) | 10 µg/mL (≈ 21.8 µM) | 9 (90 to 100%) | 3 (30 to 39%) | 0 (less than 10% mortality) | 9 (90 to 100%) | 1 (from 10 to 19%) | 
